The source of these data is patent US20080038809A1, “ISOLATED LECTIN POLYPEPTIDES CONSISTING OF TRUNCATED […] UDP-GalNAc:POLYPEPTIDE N- ACETYLGALACTOSAMINYLTRANSFERASES” (GLYCOZYM APS, priority 2002, published 2008).

Assay [1] has as its system T, Tn and sialyl-Tn in HT-29 MTX cells. Briefly: O-linked mucin carbohydrate structures T, Tn and sialyl-Tn in HT-29 MTX cells by immuno-histochemistry. It counts as cell-based, human. The following applies: 5 mM, compared to controls. The text has this:
In order to evaluate GalNAcβ-benzyl as an inhibitor of mucin glycosylation and secretion we used the cultured colon carcinoma cells of mucin secreting phenotypes: HT-29 metotrexate (MTX) cells selected from the HT-29 cell line by culture in the presence of MTX (kind gift from G. Huet, France). The HT-29 MTX cells were selected to yield a goblet cell like phenotype with constitutive production of MUC5AC. In order to ensure proper goblet cell differentiation the HT29MTX cell line were continuously grown up to 21 days in the presence of 5 mM GalNAcα-benzyl, 5 mM GalNAcβ-benzyl, 5 mM GlcNAcα-benzyl and without inhibitor using culture conditions as described in Hennebicq-Reig et al. (Permanent exposure of mucin-secreting HT-29 cells to benzyl-N-acetyl-alpha-D-galactosaminide induces abnormal O-glycosylation of mucins and inhibits constitutive and stimulated MUC5AC secretion. Biochem J. 1998; 334:283-95). […] Furthermore the viscosity of the media from cells with and without inhibitor was evaluated using viscosity micro-measurement.

Assay [2] has as its system core 1 α2-3sialyltransferase ST3Gal-I. The following applies: cited from earlier work.
The target of assay [3] is human GalNAc-T4 (UDP-GalNAc:polypeptide N-acetylgalactosaminyltransferase T4) isolated truncated lectin domain (T4ld), HIS-tagged, amino acid residues 405-578 o (Homo sapiens, UniProt Q8N4A0). Briefly: biochemical. The assay is classed as binding. The following applies: read-out: Concentration required for 50% inhibition (IC50), binding to GalNAc-MUC1 glycopeptide. The text has this:
(§1) In order to minimize the size and functional complexity of GalNAc-transferase lectins to be used as probes for binding studies, we used multiple sequence alignment analysis to predict and design suitable expression constructs for isolated lectin domains (FIG. 2). In the present invention a direct binding assay was developed using isolated lectin domains of GalNAc-T4 and -T2 with minimal size (FIG. 5). […] The lectin Helix Pomatia (HP) was used as a control plant lectin with known binding specificity for […].
(§2) Direct binding ELISA assay was developed as follows: Polystyrene microtiter plates (Maxisorb, Nunc, Denmark) were coated with peptides or enzymatically glycosylated glycopeptides in PBS overnight at 4° C. Plates were washed and blocked with 0.1% Tween20 and 0.2% BSA in PBS for 1 h at room temperature, followed by incubation with biotinylated proteins in PBS with 0.05% Tween20 for 2 h at room temperature. After four washes with PBS, plates were incubated with 1:2,000 dilution streptavidin-HRP (Sigma) in PBS for 30 min at room temperature and washed four times with PBS. Development was performed with 0.5 mg/ml o-phenylenediamine and 0.02% H2O2 at room temperature for 15 min, and reaction stopped by adding 100 μl/well of 0.5 N H2SO4. Competitive inhibition assays were done at end-point titers of GalNAc-transferase proteins with one hour preincubations with inhibitor.
(§3) In binding studies using lectins without biotinylation antibodies to the HIS-tag and the T7-tag, or in some experiments antibodies raised to GalNAc-T2 and -T4 enzymes were used to detect binding.
(§4) Inhibition experiments were used to further define the binding specificity of GalNAc-T2 and -T4 secreted soluble enzymes as well as lectin domains compared to Helix Pomatia lectin (Table IV).
(§5) The ligand target used in this Example is a GalNAc-MUC1 glycopeptide produced enzymatically from synthetic peptides.

Assay [4] addresses human GalNAc-T2 (UDP-GalNAc:polypeptide N-acetylgalactosaminyltransferase T2), secreted soluble enzyme (sT2), wild type (Homo sapiens, UniProt Q10471). Briefly: biochemical. On the procedure:
(§6) The pH of 1 ml purified protein (0.3 mg/ml) in PBS was adjusted to pH 9 with 1 M NaOH and 40 μl N-hydroxy-succinimidobiotin (Sigma) dissolved in DMF (10 mg/ml) was added. The solution was mixed end-over-end for 2 hours at room temperature, and dialyzed three times against PBS and an equal volume of glycerol was added. The biotinylated proteins were stored at −20° C. in 50% glycerol until use.
(§7) Glycopeptides were purified by C-18 reverse phase HPLC. Peptides were custom synthesized by Neosystems (Strasbourg). Biotinylated Helix Pomatia lectin (HPA) was from KemEnTec (Denmark). Anti-MUC1 HMFG2 monoclonal antibody was a generous gift from Joyce Taylor-Papadimitriou.
(§8) Direct binding ELISA assay was developed as follows: Polystyrene microtiter plates (Maxisorb, Nunc, Denmark) were coated with peptides or enzymatically glycosylated glycopeptides in PBS overnight at 4° C. Plates were washed and blocked with 0.1% Tween20 and 0.2% BSA in PBS for 1 h at room temperature, followed by incubation with biotinylated proteins in PBS with 0.05% Tween20 for 2 h at room temperature. After four washes with PBS, plates were incubated with 1:2,000 dilution streptavidin-HRP (Sigma) in PBS for 30 min at room temperature and washed four times with PBS. […]

Assay [5] concerns the target human GalNAc-T4 (UDP-GalNAc:polypeptide N-acetylgalactosaminyltransferase T4), secreted soluble enzyme (sT4), wild type (Homo sapiens, UniProt Q8N4A0). The note with it: read-out: Concentration required for 50% inhibition (IC50), binding to GalNAc-MUC1 glycopeptide. Here is the method: as §6, §7, §8
Assay [6] has as its target T1, secreted soluble GalNAc-T2 (Homo sapiens, UniProt Q10471).
T1 construct: 6xHis (N); thrombin cleavage site (N); T7 antibody site (N); made in house; host or cells: baculovirus (pAcGP67A), High Five insect cells
As to the kind of experiment: Inhibition of secreted soluble GalNAc-T2 (sT2) binding to GalNAc-MUC1 glycopeptide, ELISA. Here is the method: as §2, §4
A general note: In an ELISA, binding on a coated surface is turned into a signal by an enzyme label.

The target of assay [7] is T2, GalNAc-T2 lectin domain (Homo sapiens, UniProt Q10471).
T2 construct: comprises amino acid residues 408-571 of GALNT2; made in house; host or cells: baculovirus (pAcGP67-A), virus made in Sf9, protein produced in High Five insect cells
T2 sequence (Q10471 408-571): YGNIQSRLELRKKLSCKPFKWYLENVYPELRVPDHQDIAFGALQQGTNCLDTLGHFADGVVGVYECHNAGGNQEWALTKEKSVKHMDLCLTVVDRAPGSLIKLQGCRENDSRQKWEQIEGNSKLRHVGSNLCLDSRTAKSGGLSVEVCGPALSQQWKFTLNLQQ
Briefly: Inhibition of GalNAc-T2 lectin domain (T2ld) binding to GalNAc-MUC1 glycopeptide, ELISA. On the procedure:
as §2, §3, §4

Assay [8] concerns the target T3, GalNAc-T4 lectin domain (Homo sapiens, UniProt Q8N4A0).
T3 construct: comprises amino acid residues 405-578 of GALNT4; made in house; host or cells: baculovirus (pAcGP67-A), virus made in Sf9, protein produced in High Five insect cells
As to the kind of experiment: Inhibition of GalNAc-T4 lectin domain (T4ld) binding to GalNAc-MUC1 glycopeptide, ELISA. On the procedure:
as §2, §3, §4

Assay [9] relates to GalNAc-T2 and -T4 secreted soluble enzymes as well as lectin domains. Briefly: Inhibition of GalNAc-transferase lectin binding to GalNAc-glycopeptides, statements on GalNAc-T2 and -T4 together. Further details: species or system human. The following applies: enzymes and isolated lectins. Here is the method: as §2
Lectins and antibodies to carbohydrates usually recognize the anomeric configuration of the sugar structures they bind.
as §4

Assay [10] addresses Helix Pomatia lectin (HPA) (Helix pomatia, UniProt Q2F1K8). Briefly: Inhibition of Helix Pomatia lectin (HPA) binding, ELISA. Here is the method: as §7, §2, §4
Assay [11] has as its target T4, secreted soluble GalNAc-T4 (Homo sapiens, UniProt Q8N4A0).
T4 construct: 6xHis (N); thrombin cleavage site (N); T7 antibody site (N); made in house; host or cells: baculovirus (pAcGP67A), High Five insect cells
Briefly: Inhibition of secreted soluble GalNAc-T4 (sT4) binding to GalNAc-MUC1 glycopeptide, ELISA. On the procedure: as §2, §4

For assay [12], the target named is human GalNAc-T4 (UDP-GalNAc:polypeptide N-acetylgalactosaminyltransferase T4) isolated truncated lectin domain (T4ld), HIS-tagged, amino acid residues 405-578 of GALNT4 (Homo sapiens, UniProt Q8N4A0). Briefly: biochemical. The assay is classed as binding. The note with it: binding to GalNAc-MUC1 glycopeptide.
Chain of human GalNAc-T4 (UDP-GalNAc:polypeptide N-acetylgalactosaminyltransferase T4) isolated truncated lectin domain (T4ld), HIS-tagged, amino acid residues 405-578 of GALNT4 (Q8N4A0 405-578): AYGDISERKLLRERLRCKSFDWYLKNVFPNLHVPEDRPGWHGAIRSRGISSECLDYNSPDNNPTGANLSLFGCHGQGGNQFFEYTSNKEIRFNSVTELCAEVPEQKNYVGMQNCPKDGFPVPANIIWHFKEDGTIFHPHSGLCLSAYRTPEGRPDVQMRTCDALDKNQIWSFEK
Description: as §1, §2, §3, §4, §5

Where two headings read alike, the source gives them in different places.

Chain of human GalNAc-T2 (UDP-GalNAc:polypeptide N-acetylgalactosaminyltransferase T2), secreted soluble enzyme (sT2), wild type (Q10471 52-571 limits assumed): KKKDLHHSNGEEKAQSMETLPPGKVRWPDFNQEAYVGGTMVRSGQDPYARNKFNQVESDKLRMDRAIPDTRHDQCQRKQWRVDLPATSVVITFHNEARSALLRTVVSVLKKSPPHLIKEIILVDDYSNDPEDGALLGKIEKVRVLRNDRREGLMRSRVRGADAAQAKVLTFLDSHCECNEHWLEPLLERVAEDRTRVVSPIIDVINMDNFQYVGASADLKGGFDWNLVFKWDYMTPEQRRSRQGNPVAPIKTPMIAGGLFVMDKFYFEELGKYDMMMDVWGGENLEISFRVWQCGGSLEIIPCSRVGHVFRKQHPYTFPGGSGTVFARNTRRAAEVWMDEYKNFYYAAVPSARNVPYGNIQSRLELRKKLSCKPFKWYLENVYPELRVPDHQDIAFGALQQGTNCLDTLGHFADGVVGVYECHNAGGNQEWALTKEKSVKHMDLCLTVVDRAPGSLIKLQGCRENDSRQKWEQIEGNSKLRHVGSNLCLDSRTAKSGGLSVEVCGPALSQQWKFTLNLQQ
T1 sequence (Q10471 52-571 limits assumed): as above
Chain of human GalNAc-T4 (UDP-GalNAc:polypeptide N-acetylgalactosaminyltransferase T4), secreted soluble enzyme (sT4), wild type (Q8N4A0 36-578 limits assumed): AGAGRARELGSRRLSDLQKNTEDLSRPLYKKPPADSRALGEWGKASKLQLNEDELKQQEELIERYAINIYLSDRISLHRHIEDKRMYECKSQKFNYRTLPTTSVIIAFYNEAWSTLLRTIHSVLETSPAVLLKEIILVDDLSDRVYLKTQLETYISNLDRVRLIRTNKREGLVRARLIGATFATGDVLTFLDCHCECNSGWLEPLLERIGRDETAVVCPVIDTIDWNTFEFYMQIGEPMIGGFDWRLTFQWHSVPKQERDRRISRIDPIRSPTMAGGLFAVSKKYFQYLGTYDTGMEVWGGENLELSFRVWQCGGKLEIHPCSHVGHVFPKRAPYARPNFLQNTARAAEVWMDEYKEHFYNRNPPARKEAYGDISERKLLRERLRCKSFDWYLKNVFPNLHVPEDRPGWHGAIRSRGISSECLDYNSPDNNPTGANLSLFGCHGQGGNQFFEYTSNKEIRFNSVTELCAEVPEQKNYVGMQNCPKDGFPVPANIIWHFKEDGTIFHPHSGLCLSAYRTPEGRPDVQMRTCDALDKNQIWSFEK
T4 sequence (Q8N4A0 36-578 limits assumed): as above
Chain of Helix Pomatia lectin (HPA) (Q2F1K8 entry or part of it): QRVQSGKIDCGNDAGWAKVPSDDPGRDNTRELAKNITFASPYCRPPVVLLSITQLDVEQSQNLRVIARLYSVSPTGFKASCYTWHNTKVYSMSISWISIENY
Chain of human GalNAc-T4 (UDP-GalNAc:polypeptide N-acetylgalactosaminyltransferase T4) isolated truncated lectin domain (T4ld), HIS-tagged, amino acid residues 405-578 o (Q8N4A0 405-578): as the sequence (Q8N4A0 405-578) above
T3 sequence (Q8N4A0 405-578): as above

For `CC(=O)N[C@H]1[C@H](OCc2ccccc2)O[C@H](CO)[C@@H](O)[C@@H]1O` [BzlβGlcNAc], the “O-linked mucin carbohydrate structures T, Tn and sialyl-Tn” value in assay [1] was “upregulated”.

As to `CC(=O)N[C@H]1[C@@H](OCc2ccccc2)O[C@H](CO)[C@H](O)[C@@H]1O[C@@H]1O[C@H](CO)[C@H](O)[C@H](O)[C@H]1O` [Galβ1-3GalNAcα-benzyl], the “substrate for ST3Gal-I” value in assay [2] is listed as “efficient substrate”.

On to `CC(=O)N[C@H]1[C@@H](Oc2ccccc2)O[C@H](CO)[C@H](O)[C@@H]1O` [PhlαGalNAc], for which the IC50 in [3] is 5 mM; in [4] (read-out: Concentration required for 50% inhibition (IC50), binding to GalNAc-MUC1 glycopeptide), 5 mM; in assay [5], 1 mM.

On to `CC(=O)N[C@H]1[C@@H](OP(=O)(O)OP(=O)(O)OC[C@H]2O[C@@H](n3ccc(=O)[nH]c3=O)[C@H](O)[C@@H]2O)O[C@H](CO)[C@H](O)[C@@H]1O` [UDPαGalNAc, UDP-N-acetylgalactosamine], for which the IC50 in [6] is 65 mM; in assay [7], more than 100 mM; in assay [8], 50 mM; in assay [11], 30 mM. The “inhibition of GalNAc-T2 and -T4 lectin mediated binding, in words” value in [9] is reported as “not a significant inhibitor”. Besides, the “inhibition of Helix Pomatia binding, in words” value in [10] is recorded as “strong inhibitor”.

`CC(=O)N[C@H]1[C@H](Oc2ccccc2[N+](=O)[O-])O[C@H](CO)[C@H](O)[C@@H]1O` [oNPβGalNAc] yielded an IC50 in assay [4] (binding to GalNAc-MUC1 glycopeptide) of 10 mM.

As for `CC(=O)N[C@H]1[C@H](Oc2ccc([N+](=O)[O-])cc2)O[C@H](CO)[C@H](O)[C@@H]1O` [pNPβGalNAc], the results for the IC50 in assay [6] (read-out: sT2: Concentration required for 50% inhibition (IC50)), in [7] (read-out: T2ld: Concentration required for 50% inhibition (IC50)) and in assay [12] were more than 10 mM, more than 10 mM and 8 mM, respectively.
